According to BigSolDB 2.1:

CCCCCc1ccc2c(c1)C(=O)c1ccccc1C2=O
solubility (mole fraction)
Conditions	288.15 K	293.15 K	298.15 K	303.15 K	308.15 K	313.15 K	318.15 K	323.15 K
in 2-butanone	0.0341	0.0431	0.0513	0.0587	0.0683	0.0828	0.105	0.129
in MIBK	0.0433	0.0539	0.0601	0.0676	0.0744	0.0836	0.104	0.126
in acetone	0.0225	0.0299	0.0376	0.0443	0.0517	–	0.0815	0.105
in acetonitrile	0.00299	0.00478	0.00811	0.0127	0.0203	–	0.051	0.0786
in ethanol	0.0029	0.00392	0.00531	0.00725	0.00988	0.0145	0.0195	0.0265
in ethyl acetate	0.0501	0.0583	0.0663	0.0761	0.088	0.101	0.12	0.151
in isopropyl acetate	0.0522	0.0598	0.0708	0.0842	0.0974	0.114	0.137	0.163
in methanol	0.00131	0.00199	0.00271	0.00364	0.00502	0.00682	0.00928	0.0131
in n-butanol	0.00826	0.0111	0.0154	0.021	0.0275	0.0346	0.0446	0.0626
in n-propanol	0.00541	0.00743	0.0102	0.0144	0.02	0.0265	0.0346	0.049
in sec-butanol	0.00259	0.00378	0.0056	0.00842	0.012	0.0182	0.0257	0.0388
